Assay results taken from paper PMC9327644, “Optimized peptide extraction method for analysis of antimicrobial peptide Kn2-7/dKn2-7 stability in human serum by LC–MS” (Future Science OA, 2022).
Square brackets hold non-standard residues; d marks the D form. Peptide text beside a SMILES is read from it.

Assay: Time-course stability in 25% human serum by LC-MS
Format: in vitro ADME
Settings: 25% human serum in RPMI media (165 mM MOPS, pH 7.0), 50 μg/ml peptide, 37°C water bath, precipitation with 1% formic acid in ethanol, LC-MS/MS (MRM), internal standard AMP 1018, mean ± SD, n = 3
Experimental: After parameters were optimized to reduce peptide loss during sample processing, the extent of AMP degradation by proteases in human serum was determined via a time-course experiment. Kn2-7 or dKn2-7 (50 μg/ml final concentration) was mixed with RPMI media alone or RPMI containing 25% human serum and incubated at 37°C in a water bath for up to 24 h. At predetermined time points (t = 0, 0.5, 1, 2, 3, 4 and 24 h), a 200 μl aliquot of each sample was collected and mixed with 400 μl of 1% formic acid in ethanol. Samples were incubated on ice for 15 min and centrifuged at 18,000 g for 10 min. Supernatants were transferred to fresh 500 μl tubes and stored at -20°C.
Samples were diluted eight-times with 3% ACN and 0.1% formic acid in water and spiked with internal standard AMP 1018 [15, 16] at 1 μg/ml immediately before LC–MS analysis. A 10 μl aliquot of each sample was analyzed using an Agilent ZORBAX Eclipse XDB 80Å C18 column (2.1 × 50 mm, 5 μm, Agilent, CA, USA) and a Shimadzu LC-20AD system (Shimadzu Corporation, Kyoto, Japan) coupled with a SCIEX API 4000 triple quadrupole mass spectrometer (AB Sciex, MA, USA). […]
MS was conducted in multiple reaction monitoring and positive electrospray ionization mode. […] AMPs Kn2-7/dKn2-7 and 1018 were quantified with the most abundant multiple reaction monitoring transitions m/z 558.7/120.2 and 385.18/239.1, respectively. […]

SMILES	peptide remaining at 24 h relative to the starting concentration (amount in 0 h sample)
CC[C@@H](C)[C@@H](NC(=O)[C@H](N)Cc1ccccc1)C(=O)N[C@H](CCCCN)C(=O)N[C@H](CCCNC(=N)N)C(=O)N[C@@H](C(=O)N[C@H](C)C(=O)N[C@H](CCCNC(=N)N)C(=O)N[C@H](CC(C)C)C(=O)N[C@H](CC(C)C)C(=O)N[C@H](CCCNC(=N)N)C(=O)N[C@H](CCCCN)C(=O)N[C@@H](C(=O)N[C@H](Cc1ccccc1)C(=O)O)[C@H](C)CC)[C@H](C)CC [dKn2-7] (H-[dF][dI][dK][dR][dI][dA][dR][dL][dL][dR][dK][dI][dF]-OH)	78.5% ± 2.7%
CC[C@H](C)[C@H](NC(=O)[C@H](CCCNC(=N)N)NC(=O)[C@H](CCCCN)NC(=O)[C@@H](NC(=O)[C@@H](N)Cc1ccccc1)[C@@H](C)CC)C(=O)N[C@@H](C)C(=O)N[C@@H](CCCNC(=N)N)C(=O)N[C@@H](CC(C)C)C(=O)N[C@@H](CC(C)C)C(=O)N[C@@H](CCCNC(=N)N)C(=O)N[C@@H](CCCCN)C(=O)N[C@H](C(=O)N[C@@H](Cc1ccccc1)C(=O)O)[C@@H](C)CC [Kn2-7] (H-FIKRIARLLRKIF-OH)	1.0% ± 0.4%
